Reference: patent US20230416256A1, “SMALL MOLECULE INHIBITORS OF NF-kB INDUCING KINASE” (Janssen Pharmaceutica NV, priority 2020, published 2023)
Like-named read-outs stand apart in the source and are kept apart here.

How the values were obtained:
[1] = target: recombinant human NF-kappaB-inducing kinase (NIK/MAP3K14) (Homo sapiens, UniProt Q99558); experiment: Inhibition of auto-phosphorylation of recombinant human NIK/MAP3K14 activity (AlphaScreen); format: biochemical; settings: GST-tagged NIK/MAP3K14 1 nM, 5 μM ATP, 2 h at 25° C.; average of values obtained
Procedure: Inhibition of Auto-Phosphorylation of Recombinant Human NF-kappaB-Inducing Kinase (NIK/MAP3K14) Activity (AlphaScreen®)
NIK/MAP3K14 auto-phosphorylation activity was measured using the AlphaScreen® (αscreen) format (Perkin Elmer). All compounds tested were dissolved in dimethyl sulfoxide (DMSO) and further dilutions were made in assay buffer. The final DMSO concentration was 0.7% (v/v) in assays. The assay buffer was 50 mM Tris pH 7.5 containing 1 mM EGTA (ethylene glycol tetraacetic acid), 1 mM DTT (dithiothreitol), 0.1 mM Na3VO4, 5 mM MgCl2, and 0.01% Tween® 20. The assays were carried out in 384 well Proxiplates (Perkin Elmer). The incubations consisted of the compound, 5 μM Adenosine-5′-triphosphate (ATP), and 1 nM NIK/MAP3K14. Incubations were initiated by the addition of GST-tagged NIK/MAP3K14 enzyme, carried out for 2 h at 25° C. and terminated by addition of stop buffer containing anti-phospho-IKK Ser176/180 antibody. Protein A Acceptor and Glutathione-Donor beads were added before reading using an EnVision Multilabel Plate Reader (Perkin Elmer). The signal obtained in the wells was normalized using high (full enzyme activity, 0.7% DMSO) and low controls (no enzyme activity, 0.7% DMSO, no ATP). IC50's were determined by fitting a sigmoidal curve to % inhibition of control versus Log10 compound concentration.

[2] = system: p-IKKα levels in L363 (NIK translocated multiple myeloma) cells; experiment: Effect of compounds on p-IKKα levels in L363 cells (AlphaLISA SureFire Ultra); format: cell-based, human; settings: Homo sapiens, 10 μM MG132, 6 h, average of values obtained, read-out: Assay 2 IC50
Procedure: Effect of Compounds on p-IKKα Levels in L363 (NIK Translocated Multiple Myeloma) Cells
All compounds tested were dissolved and serially diluted in DMSO, 1:3 dilution for 11 points in an Echo compatible plate. 100% DMSO was added to columns 12 and 24 of the plate to serve as high and low signal controls. This compound plate was used to spot 20 nL of compound or DMSO into a Greiner 384 well TC plate (781080). The final DMSO concentration was 0.3% (v/v) in cell assays. Human L363 cells (ATCC) were cultured in RPMI1640 medium supplemented with GlutaMax, non-essential amino acids, sodium pyruvate and 10% fetal bovine serum. Cells were routinely maintained at densities of […]-2×10^6 cells per mL at 37° C. in a humidified 5% CO2 atmosphere incubator. Cells were passaged twice a week splitting back to obtain the low density. The day before the assay, cells were washed twice in HBSS (Hank's Balanced Salt Solution), resuspended in Dulbecco's Modified Eagle Medium (DMEM)+0.5% IgG and protease free BSA (Jackson Immuno Research Laboratories), +/−250 ng/ml recombinant human B-cell activating factor (BAFF/BLyS/TNFSF13B) and incubated overnight at 37° C. in a humidified 5% CO2 atmosphere (bulk stimulation with or without BAFF). The next day, the cell concentration was adjusted to 1×10^7 cells/ml in DMEM+/−250 ng/ml BAFF+/10 μM MG132 and plated at […] into compound or DMSO spotted 384 well TC plates. Seeded cells were incubated at 37° C. in a humidified 5% CO2 atmosphere for 6 h. After 6 h, the plates were removed from the incubator and cell lysis was achieved by the addition of 2.5 μl 5×lysis buffer containing protease and phosphatase inhibitors, followed by shaking on a plate shaker at room temperature for 15 min. At the end of this incubation, lysed cells were sequentially treated and incubated with acceptor and donor bead mixes according to the manufacturer's protocol for a 1 plate/2-incubation suspension cell assay (AlphaLISA SureFire Ultra p-IKKa (Ser 176/180) Assay Kit (Perkin Elmer). Plates were read using an EnVision Multilabel Plate Reader (Perkin Elmer). Within an experiment, a concentration response curve for each compound was run in duplicate. The signal obtained in the test wells was normalized using high signal (BAFF stimulated cells, DMSO, MG132) and low signal (unstimulated cells, DMSO) controls. To determine the IC50, a sigmoidal curve was fitted to the plot of % inhibition versus Log10 compound concentration.

[3] = L-363, 6 h, 250 ng/ml BAFF stimulated
[4] = L-363, 250 ng/ml BAFF stimulated

Sequence of recombinant human NF-kappaB-inducing kinase (NIK/MAP3K14) (Q99558 whole entry): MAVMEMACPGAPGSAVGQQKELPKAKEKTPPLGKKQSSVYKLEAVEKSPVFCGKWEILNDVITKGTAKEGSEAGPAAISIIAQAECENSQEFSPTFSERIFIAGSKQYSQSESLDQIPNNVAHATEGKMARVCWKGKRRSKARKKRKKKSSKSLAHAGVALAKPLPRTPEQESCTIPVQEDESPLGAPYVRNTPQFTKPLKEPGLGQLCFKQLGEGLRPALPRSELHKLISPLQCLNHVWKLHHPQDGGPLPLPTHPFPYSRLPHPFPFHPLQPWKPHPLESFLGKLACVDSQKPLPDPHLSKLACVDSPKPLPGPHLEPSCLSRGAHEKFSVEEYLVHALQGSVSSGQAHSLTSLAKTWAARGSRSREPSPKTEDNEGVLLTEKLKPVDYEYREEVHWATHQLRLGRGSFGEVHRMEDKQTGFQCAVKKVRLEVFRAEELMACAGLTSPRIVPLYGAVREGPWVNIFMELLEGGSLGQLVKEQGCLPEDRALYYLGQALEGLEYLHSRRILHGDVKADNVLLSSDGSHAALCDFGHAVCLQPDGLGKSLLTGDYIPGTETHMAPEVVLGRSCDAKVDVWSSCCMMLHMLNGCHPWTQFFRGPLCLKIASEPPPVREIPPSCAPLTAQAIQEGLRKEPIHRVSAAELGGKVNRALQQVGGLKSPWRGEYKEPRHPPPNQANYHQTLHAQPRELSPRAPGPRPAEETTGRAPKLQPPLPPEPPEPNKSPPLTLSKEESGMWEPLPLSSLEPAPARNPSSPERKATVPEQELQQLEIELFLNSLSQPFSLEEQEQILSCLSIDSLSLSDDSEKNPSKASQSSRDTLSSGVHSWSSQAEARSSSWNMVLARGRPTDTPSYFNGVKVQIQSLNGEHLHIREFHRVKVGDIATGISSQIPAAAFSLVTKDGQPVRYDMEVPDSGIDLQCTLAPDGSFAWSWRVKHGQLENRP

| Structure (SMILES) | IC50 [1] [nM] | IC50 [2, 3] [nM] | IC50 [2, 4] [nM] |
| --- | --- | --- | --- |
| Cc1cnc2[nH]cc(-c3nc(-c4cccc([C@]5(O)CCn6ccnc65)c4)cs3)c2n1 [Example 81, (R)-7-(3-(2-(2-Methyl-5H-pyrrolo[2,3-b]pyrazin-7-yl)thiazol-4-yl)phenyl)-6,7-dihydro-5H-pyrrolo[1,2-a]imidazol-7-ol] | ≤ 100 | ≤ 100 | – |
| C[C@]1(O)C[C@](O)(c2cccc(-c3csc(-c4c[nH]c5ncccc45)n3)c2)c2ncccc21 (single isomer, unassigned) [Example 105] | > 500 | > 500 | – |
| CN1CC[C@@](O)(c2cccc(-c3csc(-c4n[nH]c5ncccc45)n3)c2)C1=O [Example 100, (R)-3-(3-(2-(1H-Pyrazolo[3,4-b]pyridin-3-yl)thiazol-4-yl)phenyl)-3-hydroxy-1-methylpyrrolidin-2-one] | > 500 | – | > 500 |
| C[C@](O)(c1cccc(-c2csc(-c3c[nH]c4ncccc34)n2)c1)c1ccccn1 (single isomer, unassigned) [Example 61] | > 500 | > 500 | – |
| O[C@]1(c2cccc(-c3csc(-c4c[nH]c5ncccc45)n3)c2)CCCn2ccnc21 (single isomer, unassigned) [Example 37] | > 500 | > 500 | – |
| O[C@@]1(c2cccc(-c3csc(-c4c[nH]c5ncccc45)n3)c2)CCn2ccnc21 [Example 10, (R)-7-(3-(2-(1H-Pyrrolo[2,3-b]pyridin-3-yl)thiazol-4-yl)phenyl)-6,7-dihydro-5H-pyrrolo[1,2-a]imidazol-7-ol] | ≤ 100 | ≤ 100 | – |
| O=C1Nc2cccnc2[C@@]1(O)c1cccc(-c2csc(-c3c[nH]c4ncccc34)n2)c1 (single isomer, unassigned) [Example 90] | > 500 | – | > 500 |
| CN1CC[C@](O)(c2cccc(-c3csc(-c4c[nH]c5ncncc45)n3)c2)C1=O (single isomer, unassigned) [Example 52] | 100 to 500 | – | > 500 |
| Cc1c(-c2c[nH]c3ncccc23)n[nH]c1-c1cccc([C@]2(O)CCN(C)C2=O)c1 [Example 119, (R)-3-Hydroxy-1-methyl-3-(3-(4-methyl-3-(1H-pyrrolo[2,3-b]pyridin-3-yl)-1H-pyrazol-5-yl)phenyl)pyrrolidin-2-one] | > 500 | – | > 500 |
| O=C1Nc2cccnc2[C@]1(O)c1cccc(-c2csc(-c3c[nH]c4ncccc34)n2)c1 (single isomer, unassigned) [Example 89] | > 500 | – | > 500 |
| [2H]c1cnc2[nH]cc(-c3nc(-c4cccc([C@@]5(O)CCn6ccnc65)c4)cs3)c2n1 [Example 19, (S)-7-(3-(2-(5H-Pyrrolo[2,3-b]pyrazin-7-yl-2-d)thiazol-4-yl)phenyl)-6,7-dihydro-5H-pyrrolo[1,2-a]imidazol-7-ol] | > 500 | > 500 | – |
| CN1CC[C@@](O)(c2cccc(-c3csc(-n4ccc5nc(N)ccc54)n3)c2)C1=O [Example 112, (R)-3-(3-(2-(5-Amino-1H-pyrrolo[3,2-b]pyridin-1-yl)thiazol-4-yl)phenyl)-3-hydroxy-1-methylpyrrolidin-2-one] | > 500 | – | > 500 |
| CN1CC[C@@](O)(c2cccc(-c3nc(-c4ccc5cnn(C)c5c4)cs3)c2)C1=O [Example 128, (R)-3-Hydroxy-1-methyl-3-(3-(4-(1-methyl-1H-indazol-6-yl)thiazol-2-yl)phenyl)pyrrolidin-2-one] | > 500 | – | > 500 |
| CN1CC[C@@](O)(c2cccc(-c3coc(-c4c[nH]c5ncccc45)c3)c2)C1=O [Example 93, (R)-3-(3-(5-(1H-Pyrrolo[2,3-b]pyridin-3-yl)furan-3-yl)phenyl)-3-hydroxy-1-methylpyrrolidin-2-one] | ≤ 100 | – | > 500 |
| O[C@]1(c2cccc(-c3csc(-c4c[nH]c5ncncc45)n3)c2)CCn2ccnc21 [Example 21, (S)-7-(3-(2-(7H-Pyrrolo[2,3-d]pyrimidin-5-yl)thiazol-4-yl)phenyl)-6,7-dihydro-5H-pyrrolo[1,2-a]imidazol-7-ol] | 100 to 500 | > 500 | – |
| CN1CC[C@@](O)(c2cccc(-c3csc(-c4c(F)[nH]c5ncccc45)n3)c2)C1=O [Example 57, (R)-3-(3-(2-(2-Fluoro-1H-pyrrolo[2,3-b]pyridin-3-yl)thiazol-4-yl)phenyl)-3-hydroxy-1-methylpyrrolidin-2-one] | 100 to 500 | – | > 500 |
| CN1CC[C@@](O)(c2cccc(-n3ncc(-c4c[nH]c5ncccc45)n3)c2)C1=O (single isomer, unassigned) [Example 109] | ≤ 100 | – | > 500 |
| CN1CC[C@@](O)(c2cccc(-c3csc(-c4c(F)[nH]c5ncc(F)cc45)n3)c2)C1=O [Example 110, (R)-3-(3-(2-(2,5-Difluoro-1H-pyrrolo[2,3-b]pyridin-3-yl)thiazol-4-yl)phenyl)-3-hydroxy-1-methylpyrrolidin-2-one] | 100 to 500 | – | > 500 |
| CN1CC[C@@](O)(c2cccc(-c3nc(-c4c[nH]c5ncccc45)sc3F)c2)C1=O (single isomer, unassigned) [Example 99] | ≤ 100 | – | > 500 |
| O[C@@]1(c2cccc(-c3csc(-c4c[nH]c5ncccc45)n3)c2)CCc2cccnc21 (single isomer, unassigned) [Example 2] | ≤ 100 | 100 to 500 | – |
| Cc1ccc2[nH]cc(-c3nc(-c4cccc([C@]5(O)CCN(C)C5=O)c4)cs3)c2n1 [Example 113, (R)-3-Hydroxy-1-methyl-3-(3-(2-(5-methyl-1H-pyrrolo[3,2-b]pyridin-3-yl)thiazol-4-yl)phenyl)pyrrolidin-2-one] | 100 to 500 | – | > 500 |
| O[C@]1(c2cccc(-c3csc(-c4c[nH]c5nccnc45)n3)c2)C=Cn2ccnc21 [Example 14, (S)-7-(3-(2-(5H-Pyrrolo[2,3-b]pyrazin-7-yl)thiazol-4-yl)phenyl)-7H-pyrrolo[1,2-a]imidazol-7-ol] | > 500 | > 500 | – |
| COc1cnc2[nH]cc(-c3nc(-c4cccc([C@]5(O)CCN(C)C5=O)c4)cs3)c2c1 [Example 49, (R)-3-Hydroxy-3-(3-(2-(5-methoxy-1H-pyrrolo[2,3-b]pyridin-3-yl)thiazol-4-yl)phenyl)-1-methylpyrrolidin-2-one] | ≤ 100 | – | 100 to 500 |
| O[C@@]1(c2cccc(-c3csc(-c4c[nH]c5ncc(Cl)c(F)c45)n3)c2)CCn2ccnc21 [Example 97, (R)-7-(3-(2-(5-Chloro-4-fluoro-1H-pyrrolo[2,3-b]pyridin-3-yl)thiazol-4-yl)phenyl)-6,7-dihydro-5H-pyrrolo[1,2-a]imidazol-7-ol] | ≤ 100 | 100 to 500 | – |
| C[C@@](O)(c1cccc(-c2csc(-c3c[nH]c4ncccc34)n2)c1)c1nccs1 (single isomer, unassigned) [Example 65] | ≤ 100 | > 500 | – |
| CN1CC[C@@](O)(c2cccc(-c3nc(-c4c(F)cnc5[nH]ccc45)cs3)c2)C1=O [Example 132, (R)-3-(3-(4-(5-Fluoro-1H-pyrrolo[2,3-b]pyridin-4-yl)thiazol-2-yl)phenyl)-3-hydroxy-1-methylpyrrolidin-2-one] | > 500 | – | > 500 |
